Results reported in EP0217101A1, “Substituted diphenyl ethers, process for their preparation and their use as herbicides” (HOECHST AKTIENGESELLSCHAFT, priority 1985, dated 1987).

What was measured:
Assay type in all cases: in vivo
[1] = test system: Stellaria media; test: Weed control post-emergence (greenhouse pot test); design: key: 0: = ohne Wirkung bzw. Schaden; 1: = 0 - 20 % Wirkung bzw. Schaden; = 20 - 40 % Wirkung bzw. Schaden; 3: = 40 - 60 % Wirkung bzw. Schaden; 4: = 60 - 80 % Wirkung bzw. Schaden; 5: = 80 - 100 % Wirkung bzw. Schaden; details: post-emergence (three-leaf stage), 2,5 kg a.i./ha, visual rating after ca. 3-4 weeks
Source text: (§1) Die Schädigung der Unkrautpflanzen bzw. die Kulturpflanzenverträglichkeit wurde gemäß einem Schlüssel bonitiert, in dem die Wirksamkeit durch Wertzahlen von 0 - 5 ausgedrückt ist. Dabei bedeutet:
(§2) Samen bzw. Rhizomstüeke von mono- und dikotylen Unkräutern wurden in Plasstiktöpfen (φ= 9 cm) in sandigem Lehmboden ausgelegt, mit Erde abgedeckt und im Gewächshaus unter guten Wachstumsbedingungen angezogen. Drei Wochen nach der Aussaat wurden die Versuchspflanzen im Dreiblattstadium behandelt. Die als Spritzpulver bzw. als Eτulsionskonzentrate formulierten erfindungsgemäßen Verbindungen wurden in verschiedenen Dosierungen mit einer Wasseraufwandmenge von umgerechnet 600-800 l/ha auf die grünen Pflanzenteile gesprüht und nach ca. 3-4 Wochen Standzeit der Versuchspflanzen im Gewächshaus unter optimalen Wachstumsbedingungen (Temperatur 23°C +/- 1°C, relative Luftfeuchte 60-80 %) die Wirkung der Präparate optisch im Vergleich zu unbehandelten Kontrollen bonitiert.

[2] = test system: Echinochloa crus-galli; test: Weed control post-emergence (greenhouse pot test); design: key: 0: = ohne Wirkung bzw. Schaden; 1: = 0 - 20 % Wirkung bzw. Schaden; = 20 - 40 % Wirkung bzw. Schaden; 3: = 40 - 60 % Wirkung bzw. Schaden; 4: = 60 - 80 % Wirkung bzw. Schaden; 5: = 80 - 100 % Wirkung bzw. Schaden; details: post-emergence (three-leaf stage), 2,5 kg a.i./ha, visual rating after ca. 3-4 weeks
Source text: as §1, §2

[3] = test system: Stellaria media; test: Weed control pre-emergence (greenhouse pot test); design: key: 0: = ohne Wirkung bzw. Schaden; 1: = 0 - 20 % Wirkung bzw. Schaden; = 20 - 40 % Wirkung bzw. Schaden; 3: = 40 - 60 % Wirkung bzw. Schaden; 4: = 60 - 80 % Wirkung bzw. Schaden; 5: = 80 - 100 % Wirkung bzw. Schaden; details: pre-emergence, 2,5 kg a.i./ha, visual rating after 3-4 weeks
Source text: as §1
(§3) Samen bzw. Rhizomstücke von mono- und dikotylen Unkrautpflanzen wurden in Plasstiktöpfen (0 = 9 cm) in sandiger Lehmerde ausgelegt und mit Erde abgedeckt. Die in Form von benetzbaren Pulvern oder Emulsionskonzentraten formulierten erfindungsgemäßen Verbindungen wurden dann als wäßrige Suspensionen bzw. Emulsionen mit einer Wasseraufwandmenge von umgerechnet 600-800 1/ha in unterschiedlichen Dosierungen auf die Oberfläche der Abdeckerde appliziert. Nach der Behandlung wurden die Töpfe im Gewächshaus aufgestellt und unter guten Wachstumsbedingungen für die Unkrautpflanzen gehalten (Temperatur 23 plus/minus 1 Grad Celsius, relative Luftfeuchte 60-80 %).
(§4) Die optische Bonitur der Pflanzen- bzw. Auflaufschäden erfolgte nach dem Auflaufen der Versuchspflanzen nach einer Versuchszeit von 3-4 Wochen im Vergleich zu unbehandelten Kontrollen.

[4] = test system: Echinochloa crus-galli; test: Weed control pre-emergence (greenhouse pot test); design: key: 0: = ohne Wirkung bzw. Schaden; 1: = 0 - 20 % Wirkung bzw. Schaden; = 20 - 40 % Wirkung bzw. Schaden; 3: = 40 - 60 % Wirkung bzw. Schaden; 4: = 60 - 80 % Wirkung bzw. Schaden; 5: = 80 - 100 % Wirkung bzw. Schaden; details: pre-emergence, 2,5 kg a.i./ha, visual rating after 3-4 weeks
Source text: as §1, §3, §4

[5] = test system: Avena sativa; test: Weed control post-emergence (greenhouse pot test); details: post-emergence (three-leaf stage), 2,5 kg a.i./ha, visual rating after ca. 3-4 weeks
Source text: as §1, §2

[6] = test system: Chrysanthemum segetum; test: Weed control post-emergence (greenhouse pot test); details: post-emergence (three-leaf stage), 2,5 kg a.i./ha, visual rating after ca. 3-4 weeks
Source text: as §1, §2

[7] = test system: Sinapis arvensis; test: Weed control post-emergence (greenhouse pot test); details: post-emergence (three-leaf stage), 2,5 kg a.i./ha, visual rating after ca. 3-4 weeks
Source text: as §1, §2

[8] = test system: Avena sativa; test: Weed control pre-emergence (greenhouse pot test); details: pre-emergence, 2,5 kg a.i./ha, visual rating after 3-4 weeks
Source text: as §1, §3, §4

[9] = test system: Chrysanthemum segetum; test: Weed control pre-emergence (greenhouse pot test); details: pre-emergence, 2,5 kg a.i./ha, visual rating after 3-4 weeks
Source text: as §1, §3, §4

[10] = test system: Sinapis arvensis; test: Weed control pre-emergence (greenhouse pot test); details: pre-emergence, 2,5 kg a.i./ha, visual rating after 3-4 weeks
Source text: as §1, §3, §4

Compound	Herbizide Wirkung im Nachauflauf STM [1]	Herbizide Wirkung im Nachauflauf ECG [2]	Herbizide Wirkung im Vorauflauf STM [3]	Herbizide Wirkung im Vorauflauf ECG [4]	Herbizide Wirkung im Nachauflauf AS [5]	Herbizide Wirkung im Nachauflauf CRS [6]	Herbizide Wirkung im Nachauflauf SIA [7]	Herbizide Wirkung im Vorauflauf AS [8]	Herbizide Wirkung im Vorauflauf CRS [9]	Herbizide Wirkung im Vorauflauf SIA [10]
CC1(C)OCC(COC(OC(=O)c2cc(Oc3ccc(C(F)(F)F)cc3Cl)ccc2[N+](=O)[O-])C(Cl)(Cl)Cl)O1 (centres unmarked) [compound 6, 5-(2-Chlor-4-trifluormethylphenoxy)-2-nitrobenzoesäure-1-(2,2-dimethyl-1,3-dioxolan-4-yl)-methoxy-2,2,2-trichlorethylester]	3 (= 40 - 60 % Wirkung bzw. Schaden)	0	0	0	1 (= 0 - 20 % Wirkung bzw. Schaden)	4 (= 60 - 80 % Wirkung bzw. Schaden)	4 (= 60 - 80 % Wirkung bzw. Schaden)	1 (= 0 - 20 % Wirkung bzw. Schaden)	3 (= 40 - 60 % Wirkung bzw. Schaden)	2 (= 20 - 40 % Wirkung bzw. Schaden)
Cc1ncsc1COC(OC(=O)c1cc(Oc2ccc(C(F)(F)F)cc2Cl)ccc1[N+](=O)[O-])C(Cl)(Cl)Cl (centres unmarked) [compound 37]	0	2 (= 20 - 40 % Wirkung bzw. Schaden)	1 (= 0 - 20 % Wirkung bzw. Schaden)	2 (= 20 - 40 % Wirkung bzw. Schaden)	2 (= 20 - 40 % Wirkung bzw. Schaden)	4 (= 60 - 80 % Wirkung bzw. Schaden)	5 (= 80 - 100 % Wirkung bzw. Schaden)	2 (= 20 - 40 % Wirkung bzw. Schaden)	3 (= 40 - 60 % Wirkung bzw. Schaden)	4 (= 60 - 80 % Wirkung bzw. Schaden)
